Results: paper PMC7531004, “Discovery of gramicidin A analogues with altered activities by multidimensional screening of a one-bead-one-compound library” (Nature Communications, 2020)
Where a SMILES comes first, the peptide text is derived from it. [ ]: non-standard residue; d: D form. The star is where a group is joined. NHCH2CH2OH = OCCN*; For = O=C*

Key:
[1] = H+/Na+ transport assay of bead-derived peptides (one-point); format: biochemical; design: key: relative activity; mean of two control wells = 1.00; conditions: bead-derived peptide solution, EYPC/EYPG LUVs;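 also: relative to parent gramicidin A activity set to 1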
Summary of the method: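 Miniaturized 96-well format. LUVs with entrapped pyranine (1.0 mM) were exposed to peptide for 30 min at RT. Intensities were expressed relative to full lysis by Triton X-100 and no treatment, with control-well mean = 1.00.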

[2] = test system: P388 mouse leukemia cells; conditions: 92 h
Summary of the method: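 P388 cells at 1 × 10^4 cells/mL (final) were exposed to library peptides (stocks diluted 250-fold in RPMI1640/10% FBS) for 92 h at 37 °C, 5% CO2. Viable cells were counted by WST-1/1-methoxy PMS (4 h), absorbance 415 nm, and expressed as cell viability (%).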

[3] = test system: Streptococcus pyogenes SSI-9; assay: Antibacterial activity assay of bead-derived peptides (three concentrations); format: cell-based; design: key: +++: inhibition by the 640-fold diluted peptide solution; ++: inhibition by the 160-fold diluted solution; +: inhibition by the 40-fold diluted solution; -: no inhibition; conditions: S. pyogenes, bead-derived peptide solution, three concentrations
Summary of the method: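 Library peptide stock applied undiluted, 4-fold and 16-fold diluted in DMSO to S. pyogenes SSI-9 (2 × 10^5 CFU) in cation-adjusted Mueller Hinton broth with 5% laked horse blood. After 18 h at 37 °C, growth judged by visible cell precipitation.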

| SMILES | H+/Na+ transport activity normalized against the value of 1 (1.00) [1] | cell viability/% [2] | antibacterial activity [3] |
| --- | --- | --- | --- |
| CC(C)C[C@@H](NC(=O)[C@H](C)NC(=O)[C@H](NC(=O)[C@H](C)NC(=O)CNC(=O)[C@@H](NC=O)C(C)C)C(C)C)C(=O)N[C@H](C(=O)N[C@@H](C(=O)N[C@@H](Cc1c[nH]c2ccccc12)C(=O)N[C@H](CC(C)C)C(=O)N[C@@H](Cc1c[nH]c2ccccc12)C(=O)N[C@H](CC(C)C)C(=O)N[C@@H](Cc1c[nH]c2ccccc12)C(=O)N[C@@H](C(=O)N[C@@H](Cc1c[nH]c2ccccc12)C(=O)NCCO)C(C)C)C(C)C)C(C)C [compound 9535] (For-VGA[dV]A[dL]V[dV]W[dL]W[dL]W[dV]W-NHCH2CH2OH) | 1.16 | 3.8% | - |
| CC(C)C[C@@H](NC(=O)[C@H](Cc1c[nH]c2ccccc12)NC(=O)[C@H](NC(=O)[C@H](Cc1c[nH]c2ccccc12)NC(=O)[C@H](NC(=O)[C@@H](NC(=O)[C@H](NC(=O)[C@H](C)NC(=O)[C@H](NC(=O)[C@H](C)NC(=O)CNC(=O)[C@@H](NC=O)C(C)C)C(C)C)C(C)C)C(C)C)C(C)C)C(C)C)C(=O)N[C@@H](Cc1c[nH]c2ccccc12)C(=O)N[C@@H](C(=O)N[C@@H](Cc1c[nH]c2ccccc12)C(=O)NCCO)C(C)C [compound 9571] (For-VGA[dV]A[dV]V[dV]W[dV]W[dL]W[dV]W-NHCH2CH2OH) | 1.14 | 100.0% | + |
| CC(C)C[C@@H](NC(=O)[C@H](C)NC(=O)CNC(=O)[C@@H](NC=O)C(C)C)C(=O)N[C@@H](C)C(=O)N[C@H](CC(C)C)C(=O)N[C@H](C(=O)N[C@@H](C(=O)N[C@@H](Cc1c[nH]c2ccccc12)C(=O)N[C@H](CC(C)C)C(=O)N[C@@H](Cc1c[nH]c2ccccc12)C(=O)N[C@@H](C(=O)N[C@@H](Cc1c[nH]c2ccccc12)C(=O)N[C@@H](C(=O)N[C@@H](Cc1c[nH]c2ccccc12)C(=O)NCCO)C(C)C)C(C)C)C(C)C)C(C)C [compound 9607] (For-VGA[dL]A[dL]V[dV]W[dL]W[dV]W[dV]W-NHCH2CH2OH) | 1.03 | 48.6% | + |
| CNC(=O)C[C@@H](NC(=O)[C@H](Cc1c[nH]c2ccccc12)NC(=O)[C@@H](CC(C)C)NC(=O)[C@H](Cc1c[nH]c2ccccc12)NC(=O)[C@H](NC(=O)[C@H](Cc1c[nH]c2ccccc12)NC(=O)[C@H](NC(=O)[C@@H](NC(=O)[C@@H](CC(C)C)NC(=O)[C@H](C)NC(=O)[C@@H](CC(C)C)NC(=O)[C@H](C)NC(=O)CNC(=O)[C@@H](NC=O)C(C)C)C(C)C)C(C)C)C(C)C)C(=O)N[C@@H](Cc1c[nH]c2ccccc12)C(=O)NCCO [compound 9609] (For-VGA[dL]A[dL]V[dV]W[dV]W[dL]W[dD](NHMe)W-NHCH2CH2OH) | 1.15 | 100.0% | - |
| CC(C)C[C@@H](NC(=O)[C@H](C)NC(=O)CNC(=O)[C@@H](NC=O)C(C)C)C(=O)N[C@@H](C)C(=O)N[C@@H](C(=O)N[C@H](C(=O)N[C@@H](C(=O)N[C@@H](Cc1c[nH]c2ccccc12)C(=O)N[C@@H](C(=O)N[C@@H](Cc1c[nH]c2ccccc12)C(=O)N[C@@H](C(=O)N[C@@H](Cc1c[nH]c2ccccc12)C(=O)N[C@@H](C(=O)N[C@@H](Cc1c[nH]c2ccccc12)C(=O)NCCO)C(C)C)C(C)C)C(C)C)C(C)C)C(C)C)C(C)C [compound 9610] (For-VGA[dL]A[dV]V[dV]W[dV]W[dV]W[dV]W-NHCH2CH2OH) | 1.14 | 100.0% | + |
| CC(C)C[C@@H](NC(=O)[C@H](C)NC(=O)CNC(=O)[C@@H](NC=O)C(C)C)C(=O)N[C@@H](C)C(=O)N[C@@H](C(=O)N[C@H](C(=O)N[C@H](CC(C)C)C(=O)N[C@@H](Cc1c[nH]c2ccccc12)C(=O)N[C@H](CC(C)C)C(=O)N[C@@H](Cc1c[nH]c2ccccc12)C(=O)N[C@H](CC(C)C)C(=O)N[C@@H](Cc1c[nH]c2ccccc12)C(=O)N[C@H](CC(C)C)C(=O)N[C@@H](Cc1c[nH]c2ccccc12)C(=O)NCCO)C(C)C)C(C)C [compound 9628] (For-VGA[dL]A[dV]V[dL]W[dL]W[dL]W[dL]W-NHCH2CH2OH) | 1.16 | 0.0% | + |
| CC(C)C[C@@H](NC(=O)[C@H](C)NC(=O)[C@H](NC(=O)[C@H](C)NC(=O)CNC(=O)[C@@H](NC=O)C(C)C)C(C)C)C(=O)N[C@H](C(=O)N[C@@H](C(=O)N[C@@H](Cc1c[nH]c2ccccc12)C(=O)N[C@@H](C(=O)N[C@@H](Cc1c[nH]c2ccccc12)C(=O)N[C@H](CC(C)C)C(=O)N[C@@H](Cc1c[nH]c2ccccc12)C(=O)N[C@@H](C(=O)N[C@@H](Cc1c[nH]c2ccccc12)C(=O)NCCO)C(C)C)C(C)C)[C@H](C)O)C(C)C [compound 9633] (For-VGA[dV]A[dL]V[dT]W[dV]W[dL]W[dV]W-NHCH2CH2OH) | 1.06 | 100.0% | - |
| CC(C)C[C@@H](NC(=O)[C@H](C)NC(=O)CNC(=O)[C@@H](NC=O)C(C)C)C(=O)N[C@@H](C)C(=O)N[C@@H](C(=O)N[C@H](C(=O)N[C@H](CC(C)C)C(=O)N[C@@H](Cc1c[nH]c2ccccc12)C(=O)N[C@H](CC(C)C)C(=O)N[C@@H](Cc1c[nH]c2ccccc12)C(=O)N[C@@H](C(=O)N[C@@H](Cc1c[nH]c2ccccc12)C(=O)N[C@H](CC(C)C)C(=O)N[C@@H](Cc1c[nH]c2ccccc12)C(=O)NCCO)C(C)C)C(C)C)[C@H](C)O [compound 9676] (For-VGA[dL]A[dT]V[dL]W[dL]W[dV]W[dL]W-NHCH2CH2OH) | 1.05 | 100.0% | - |
| CNC(=O)C[C@@H](NC(=O)[C@H](Cc1c[nH]c2ccccc12)NC(=O)[C@H](NC(=O)[C@H](Cc1c[nH]c2ccccc12)NC(=O)[C@@H](CC(C)C)NC(=O)[C@H](Cc1c[nH]c2ccccc12)NC(=O)[C@H](NC(=O)[C@@H](NC(=O)[C@@H](CC(C)C)NC(=O)[C@H](C)NC(=O)[C@H](NC(=O)[C@H](C)NC(=O)CNC(=O)[C@@H](NC=O)C(C)C)C(C)C)C(C)C)C(C)C)C(C)C)C(=O)N[C@@H](Cc1c[nH]c2ccccc12)C(=O)NCCO [compound 9727] (For-VGA[dV]A[dL]V[dV]W[dL]W[dV]W[dD](NHMe)W-NHCH2CH2OH) | 1.10 | 100.0% | - |
| CC(C)C[C@@H](NC(=O)[C@H](C)NC(=O)CNC(=O)[C@@H](NC=O)C(C)C)C(=O)N[C@@H](C)C(=O)N[C@H](CC(C)C)C(=O)N[C@H](C(=O)N[C@@H](C(=O)N[C@@H](Cc1c[nH]c2ccccc12)C(=O)N[C@@H](C(=O)N[C@@H](Cc1c[nH]c2ccccc12)C(=O)N[C@@H](C(=O)N[C@@H](Cc1c[nH]c2ccccc12)C(=O)N[C@@H](C(=O)N[C@@H](Cc1c[nH]c2ccccc12)C(=O)NCCO)[C@H](C)O)C(C)C)C(C)C)C(C)C)C(C)C [compound 9735] (For-VGA[dL]A[dL]V[dV]W[dV]W[dV]W[dT]W-NHCH2CH2OH) | 1.18 | 100.0% | - |
| CC(C)C[C@@H](NC(=O)[C@H](C)NC(=O)[C@H](NC(=O)[C@H](C)NC(=O)CNC(=O)[C@@H](NC=O)C(C)C)C(C)C)C(=O)N[C@H](C(=O)N[C@@H](C(=O)N[C@@H](Cc1c[nH]c2ccccc12)C(=O)N[C@@H](C(=O)N[C@@H](Cc1c[nH]c2ccccc12)C(=O)N[C@@H](C(=O)N[C@@H](Cc1c[nH]c2ccccc12)C(=O)N[C@H](CC(C)C)C(=O)N[C@@H](Cc1c[nH]c2ccccc12)C(=O)NCCO)C(C)C)C(C)C)[C@H](C)O)C(C)C [compound 9738] (For-VGA[dV]A[dL]V[dT]W[dV]W[dV]W[dL]W-NHCH2CH2OH) | 1.21 | 100.0% | - |
| CC(C)C[C@@H](NC(=O)[C@H](C)NC(=O)[C@H](NC(=O)[C@H](C)NC(=O)CNC(=O)[C@@H](NC=O)C(C)C)C(C)C)C(=O)N[C@H](C(=O)N[C@H](CC(C)C)C(=O)N[C@@H](Cc1c[nH]c2ccccc12)C(=O)N[C@@H](C(=O)N[C@@H](Cc1c[nH]c2ccccc12)C(=O)N[C@H](CC(C)C)C(=O)N[C@@H](Cc1c[nH]c2ccccc12)C(=O)N[C@@H](C(=O)N[C@@H](Cc1c[nH]c2ccccc12)C(=O)NCCO)C(C)C)C(C)C)C(C)C [compound 9742] (For-VGA[dV]A[dL]V[dL]W[dV]W[dL]W[dV]W-NHCH2CH2OH) | 1.21 | 0.0% | + |
| CC(C)C[C@@H](NC(=O)[C@@H](NC(=O)[C@H](NC(=O)[C@H](C)NC(=O)[C@H](NC(=O)[C@H](C)NC(=O)CNC(=O)[C@@H](NC=O)C(C)C)[C@H](C)O)C(C)C)C(C)C)C(=O)N[C@@H](Cc1c[nH]c2ccccc12)C(=O)N[C@@H](C(=O)N[C@@H](Cc1c[nH]c2ccccc12)C(=O)N[C@@H](C(=O)N[C@@H](Cc1c[nH]c2ccccc12)C(=O)N[C@@H](C(=O)N[C@@H](Cc1c[nH]c2ccccc12)C(=O)NCCO)C(C)C)C(C)C)C(C)C [compound 9799] (For-VGA[dT]A[dV]V[dL]W[dV]W[dV]W[dV]W-NHCH2CH2OH) | 1.26 | 100.0% | - |
